{"source": "patent EP4252752A1", "about": "“DRUG FOR TREATMENT OR PREVENTION OF CEREBRAL HEMORRHAGE, AND METHOD FOR TREATMENT OR PREVENTION OF CEREBRAL HEMORRHAGE USING SAID DRUG” (Biogen MA Inc., priority 2020, dated 2022)", "format_in_all_cases": "in vivo, SD rats", "key": {"[1]": {"system": "animal model of cerebral hemorrhage", "test": "Hematoma volume in brain sections, collagenase-induced intracerebral hemorrhage (Example 1)", "conditions": "2 mg/mL solution of SMTP-7 injected into the brain at 0.2 µL/min over 10 minutes, 24 hours after collagenase injection; brain sections on day 7; FIG. 1A-1C, FIG. 2", "method": "(§1) Eight to 10 week old male SD rats (250 to 300 g body weight) were kept under a 12-hour light/dark cycle and a temperature of 22°C ± 1°C. The rats were raised in plastic cages and given free access to water and feed. The number of rats used in each experiment was n = 4 unless otherwise indicated. Moreover, a component other than those listed in the injection solution was physiological saline.\n(§2) The rats were anesthetized with isoflurane (1.5% isoflurane + 66% NO + 33% O2) and then injected with collagenase from clostridium histolyticum (type IV, made by Sigma-Aldrich) at a concentration of 0.25 U/µL at a position 3 mm lateral from the center of the brain, at bregma level in the anteroposterior direction and 5 mm behind the stria vascularis using a syringe to inject for 5 minutes at a rate of 0.2 µL/min, then the syringe needle was held at that position for 10 minutes, and then slowly withdrawn over another 10 minutes (0.5 mm per minute). Note that care was taken to prevent backflow during injection. In the following description, the day of this collagenase injection is referred to as day 0. This collagenase injection causes an intracerebral hemorrhage and the formation of a hematoma. […]\nMoreover, the ratio of volume of hematoma to the volume of the entire brain was also measured using Imaged. […]"}, "[2]": {"system": "animal model of cerebral hemorrhage", "test": "Evans blue staining of brain sections, collagenase-induced intracerebral hemorrhage (Example 2)", "conditions": "SMTP-7 test solution as in example 1; 2% Evans blue into tail vein 1 hour before sacrifice, day 7; FIG. 3A-3D, 4, 5", "method": "as §1\nas §2, with “minute).” for “minute). Note that care was taken to prevent backflow during injection. In the following description, the day of this collagenase injection is referred to as day 0. This collagenase injection causes an intracerebral hemorrhage and the formation of a hematoma.”\nThe same experiment as in example 1 was performed again. […] Micrographs of whole brains and 3 mm thick sections are illustrated in FIG. 3A to FIG. 3D, and the total area (mm^2) of Evans blue-stained region and staining density determined from the sections using Imaged are shown in FIG. 4 and FIG. 5. […] In FIG. 5, the vertical axis represents the concentration value of Evans blue expressed as absorbance at a wavelength of 620 nm."}, "[3]": {"system": "animal model of cerebral hemorrhage", "test": "Small animal MRI (T2-weighted) of hematoma and edema, collagenase-induced intracerebral hemorrhage (Example 3)", "conditions": "SMTP-7 test solution as in example 1", "method": "as §1\nas §2, with “0.” for “0. This collagenase injection causes an intracerebral hemorrhage and the formation of a hematoma.”\nCollagenase injection and test solution injection were performed as in example 1, and rat brains were measured by small animal MRI on days 1 and 7 after collagenase injection (PharmaScan made by Bruker BioSpin). […] The volume of hematomas was measured based on these MRI measurements using Imaged. […]"}, "[4]": {"system": "animal model of cerebral hemorrhage", "test": "Barnes maze test, collagenase-induced intracerebral hemorrhage (Example 4)", "conditions": "SMTP-7 test solution as in example 1; day 7 to day 10 after collagenase injection; FIG. 11-15", "method": "as §1\nas §2, with “0.” for “0. This collagenase injection causes an intracerebral hemorrhage and the formation of a hematoma.”\nCollagenase injection and test solution injection were performed as in example 1, and a Barnes maze test (Barnes maze test) was performed on day 7 after collagenase injection. […] The time it took to reach the escape box and the number of holes where the rats incorrectly stayed at were evaluated. […]"}, "[5]": {"system": "animal model of cerebral hemorrhage", "test": "LAN cable walking test of motor function, collagenase-induced intracerebral hemorrhage (Example 5)", "conditions": "SMTP-7 test solution as in example 1; observed for 60 seconds on LAN cable; FIG. 16", "method": "as §1, §2\nCollagenase injection and test solution injection were performed as in example 1, and the motor function of rats was evaluated by having the rats walk on a local area network (LAN) cable. […]"}, "[6]": {"system": "animal model of cerebral hemorrhage", "test": "Hematoxylin-eosin (HE) staining of brain sections, hematoma area (Example 6)", "conditions": "SMTP-7 test solution as in example 1; sections on day 7 after collagenase injection; FIG. 17-18", "method": "as §1, §2"}, "[7]": {"system": "animal model of cerebral hemorrhage", "test": "Luxol fast blue and Cresyl violet double staining, myelin density in white matter (Example 7)", "conditions": "SMTP-7 test solution as in example 1; ipsilateral, contralateral and central sites; day 7; FIG. 19-21", "method": "as §1, §2"}, "[8]": {"system": "cleaved caspase-3 (Asp175)", "test": "Antibody staining of brain sections for cleaved caspase-3 (Example 8)", "conditions": "SMTP-7 test solution as in example 1, cerebral cortex, day 7, FIG. 22-24", "method": "as §1, §2"}, "GFAP": {"system": "GFAP", "test": "Antibody staining of brain sections with anti-GFAP antibodies (Example 9)", "conditions": "SMTP-7 test solution as in example 1; day 7; FIG. 25-27", "method": "as §1, §2"}, "Iba-1": {"system": "Iba-1", "test": "Antibody staining of brain sections with anti-Iba-1 antibodies (Example 10)", "conditions": "SMTP-7 test solution as in example 1; day 7; FIG. 28-30", "method": "as §1, §2"}}, "data": [{"smiles": "CC(C)=CCC/C(C)=C/CC[C@]1(C)Oc2c(c(O)cc3c2CN(CCC[C@@H](C(=O)O)N2Cc4c(cc(O)c5c4O[C@@](C)(CC/C=C(\\C)CCC=C(C)C)[C@@H](O)C5)C2=O)C3=O)C[C@@H]1O", "note": "[SMTP-7]", "values": [{"measurement": "ratio of volume of hematoma to the volume of the entire brain", "setting": "[1]", "value": "marked reduction in hematoma"}, {"measurement": "hematoma: total area of Evans blue-stained region and staining density", "setting": "[2]", "value": "marked reduction in hematoma"}, {"measurement": "volume ratio of hematoma in the T2-weighted MRI image", "setting": "[3]; MRI on days 1 and 7 after collagenase injection, FIG. 6-8", "value": "marked reduction in both hematoma and edema"}, {"measurement": "ratio of cerebral edema volume in brain volume (MRI)", "setting": "[3]; day 7 after collagenase injection, FIG. 9-10", "value": "marked reduction in both hematoma and edema"}, {"measurement": "learning ability: time required to reach the escape box and number of incorrect holes", "setting": "[4]", "value": "marked improvement in learning ability"}, {"measurement": "motor ability: total score (0 to 10) in LAN cable walking test", "setting": "[5]", "value": "marked improvement in motor ability"}, {"measurement": "area of the hematoma region identified by HE staining", "setting": "[6]", "value": "marked reduction in hematoma"}, {"measurement": "white matter lesions (demyelination): myelin density in white matter", "setting": "[7]", "value": "marked suppression of hematoma lesions"}, {"measurement": "number of cells expressing caspase-3 (immunopositive cells per 100 µm^2 of ROI), contralateral", "setting": "[8]; contralateral to collagenase injection", "value": "markedly reduced"}, {"measurement": "number of cells expressing caspase-3 (immunopositive cells per 100 µm^2 of ROI), ipsilateral", "setting": "[8]; ipsilateral to collagenase injection", "value": "markedly reduced"}, {"measurement": "neuron damage: immunostaining using antibodies against GFAP, number of immunopositive cells", "setting": "GFAP", "value": "significantly suppressed"}, {"measurement": "inflammation: immunostaining using antibodies against Iba-1, number of immunopositive cells", "setting": "Iba-1", "value": "significantly suppressed"}]}]}
